Experimental data from patent US20170027936A1, “ABL1 INHIBITOR FOR TREATING AND PREVENTING OCULAR NEOVASCULARISATION” (UCL BUSINESS PLC, priority 2014, published 2017).
“Also recorded” adds a separate entry of the source.

Assays:
[1] = system: BCR-ABL-expressing Ba/F3 and bone marrow cells; details: murine xenograft models of leukaemia; cited from earlier work
[2] = system: pathological angiogenesis in the retina; details: OIR, P17 retina, daily Imatinib after return to normoxia (P13-16), versus vehicle
PXN Y118 phosphorylation = PXN Y118 phosphorylation in HDMEC plated on FN (immunofluorescence, immunoblotting); format: cell-based, human; details: 10 μM Imatinib 30 min before and during plating on FN, versus vehicle
Procedure: (§1) (A-C) ABL1 kinase activity is essential for PXN phosphorylation. […] In (A), pPXN Y118 (green) is shown together with phalloidin (red) and DAPI (blue) on the left hand side and as single channel in grey scale on the right hand side; scale bar 20 μm. pPXN pixel intensity was quantified in (B) and expressed as fold change in knockdown cells at the indicated time points relative to control cells at 0 min; mean±SEM of four independent experiments.
(§2) Human microvascular dermal EC (HDMEC; Promocell, UK) and human umbilical vein EC (HUVEC; Promocell) were cultured in standard conditions and transfected with Lipofectamine RNAIMAX (Life Technologies). Primary mouse lung EC (MLEC) were isolated from mice between one and two months of age by magnetic-activated cell sorting (MACS) with PECAM antibodies (BD Biosciences, UK). […] In some experiments, cells were stimulated with VEGF165 50 ng/ml for the indicated times.
(§3) Immunofluorescence staining of HDMEC and p6 mouse retinas was analysed with a L5M710 laser scanning confocal microscope.

HDMEC = assay: Actin remodelling and cell spreading of HDMEC plated on FN (phalloidin staining); format: cell-based, human; details: Imatinib-treated
Procedure: as §1, §2, §3

retinal vasculature = assay: Physiological retinal angiogenesis in the perinatal mouse (IB4/FN labelled P6 retinal flatmounts); format: in vivo
Text: FIG. 7 ABL1 is essential for vessel spouting and branching in the retina. […] Vascular extension from the retinal centre to the vascular front is indicated with red arrows. […] Asterisks indicate statistical significance: **P<0.01.
(C,D) Reduced astrocyte, but not vascular FN deposition in Imatinib-treated retinas. […] Note reduced FN staining of astrocyte processes ahead of the vascular front (A), whilst the vasculature was prominently stained for FN.
Examples of abnormally long and wide sprouts without lateral protrusions or connections are indicated with arrows. (G) Quantification of filopodial bursts per vascular front length as an indicator of tip cell number, and quantification of branchpoints behind the vascular front; vehicle, n=7; P4/5, n=3; P2-5, n=4; ***P<0.001 versus control; ^♯P<0.05 for P4/5 versus P2-5treatment.
All animal procedures were performed in accordance with institutional and UK Home Office guidelines. We used C57/616 wild type mice (Charles River Laboratories), littermate wild type and heterozygous Nrp/-null mutants and mice carrying two floxed conditional null Nrp1 alleles (Nrp1^fl/fl) combined with Pdgfb-iCre-ERT2-Egfp with codon-improved Cre on a C57/616 background. For tamoxifen-induction of CRE-mediated recombination, 0.2 mg of tamoxifen (SIGMA) dissolved in peanut oil to 2 mg/ml was administered via intraperitoneal injection into pups at the indicated times. […] OIR was induced as previously described. Briefly, nursing dams and their pups were maintained at 75±3% O2 in an oxygen supply chamber from P7 to P12; dams were rested in room air for 1 h each day. Dams and pups were returned to room air on P12 and the pups culled on P17 to isolate retinas for immunolabelling; the size of the avascular and neovascular areas was determined with Photoshop CS4 (Adobe Inc.) in images acquired with a SZX16 stereofluorescent microscope (Olympus) equipped with a digital camera (Hamamatsu Photonics Ltd).
as §3

[3] = P6 retina, Imatinib P2 to P5, versus vehicle
[4] = P6 retina, Imatinib on P4/5 or P2-5, versus vehicle
[5] = P6 retina, Imatinib-treated mice

In the case of `O=C(NCCO)c1cccc(-c2cc(Nc3ccc(OC(F)(F)F)cc3)ncn2)c1` [GNF-5, N-(2-Hydroxyethyl)-3-(6-(4(trifluoromethoxy)phenylamino)pyrimidin-4-yl)benzamide], the “suppression of proliferation of BCR-ABL-expressing cells in vivo” value [1] is listed as “exhibits in vivo efficacy in suppressing the proliferation”.

For `Cc1ccc(NC(=O)c2ccc(CN3CCN(C)CC3)cc2)cc1Nc1nccc(-c2cccnc2)n1` [Imatinib], the “formation of neovascular tufts (NV area)” value [2] was “effectively inhibited; also recorded: reduced”, the “PXN Y118 phosphorylation (pixel intensities in immunostains and immunoblots)” value (PXN Y118 phosphorylation) was “significantly reduced” and the cell spreading (HDMEC) was “reduced”. The “stress fibres / cortical actin (phalloidin)” value (HDMEC) was “few stress fibres, but abundant cortical actin”, the “FN pixel intensity in IB4-positive (vascular) areas” value (retinal vasculature; [3]) was “no difference; also recorded: not significantly (ns) changed” and the “astrocyte FN deposition ahead of the vascular front” value (retinal vasculature; [3]) was “significantly reduced”. The “vascular extension across the retina” value (retinal vasculature; [3]) was “small, but significant reduction; also recorded: Reduced”, the “branchpoints behind the vascular front” value (retinal vasculature; [4]) was “significant and lmatinib dose-dependent reduction; also recorded: Dose-dependent decrease” and the “tip cells (filopodial bursts at the vascular front)” value (retinal vasculature; [4]) was “significantly fewer”. For the same compound, the “filopodia morphology at the vascular front” value (retinal vasculature; [5]) was “thin, wavy and misoriented”, the “interaction of tip cells with microglia” value (retinal vasculature; [5]) was “not prevented” and the “sprout morphology at the vascular front” value (retinal vasculature; [5]) was “longer and wider, with fewer lateral protrusions connecting to neighbouring sprouts”. The vascular network density (retinal vasculature; P6 retinal flatmounts, Imatinib versus vehicle) was “reduced”.
